In ChEMBL document CHEMBL3244338, “Antineoplastic agents. Structure-activity relationship study of bis(substituted aminoalkylamino)anthraquinones” (J Med Chem, 1978) one finds T/C and Activity data, which are given here for six compounds.

Calls of active or inactive are those of the source. The calls are words filed in the database; no cut-off is given here.

Data set [1] relates to P388. Briefly: Antitumor activity against mouse P388 cells allografted in BDF1 mouse assessed as increase in survival time at 100 mg/kg administered 24 hrs post challenge relative to control. The format is functional.
For data set [2], the system named is Mus musculus. Briefly: Toxicity in mouse P388 cells allografted BDF1 mouse assessed as body weight difference at 50 mg/kg administered 24 hrs post challenge relative to control. It is filed as organism-based. Further details: dose 50 mg/kg. To be noted: in vivo.
Data set [3] relates to P388. The data set is described as follows: Antitumor activity against mouse P388 cells allografted in BDF1 mouse assessed as mouse survival at 25 mg/kg administered 24 hrs post challenge relative to control. The format is functional, organism-based. Details: dose 25 mg/kg.
Data set [4] has as its system Mus musculus. Briefly: Toxicity in mouse P388 cells allografted BDF1 mouse assessed as body weight difference at 25 mg/kg administered 24 hrs post challenge relative to control. Particulars: in vivo. Details: dose 25 mg/kg. It is filed as organism-based.
The test system of data set [5] is P388. The data set is described as follows: Antitumor activity against mouse P388 cells allografted in BDF1 mouse assessed as mouse survival at 100 mg/kg administered 24 hrs post challenge relative to control. It is filed as functional, organism-based. Further details: dose 100 mg/kg.
The test system of data set [6] is P388. The data set is described as follows: Antitumor activity against mouse P388 cells allografted in BDF1 mouse assessed as increase in survival time at 25 mg/kg administered 24 hrs post challenge relative to control. It is filed as functional.
The subject of data set [7] is P388. The data set is described as follows: Antitumor activity against mouse P388 cells allografted in BDF1 mouse assessed as mouse survival at 50 mg/kg administered 24 hrs post challenge relative to control. The format is functional, organism-based. Details: dose 50 mg/kg.
Data set [8] has as its system Mus musculus. Briefly: Toxicity in mouse P388 cells allografted BDF1 mouse assessed as body weight difference at 100 mg/kg administered 24 hrs post challenge relative to control. The format is organism-based. Further details: dose 100 mg/kg. To be noted: in vivo.
The subject of data set [9] is P388. Briefly: Antitumor activity against mouse P388 cells allografted in BDF1 mouse assessed as increase in survival time at 50 mg/kg administered 24 hrs post challenge relative to control. It is filed as functional.
Data set [10] relates to P388. The data set is described as follows: Antitumor activity against mouse P388 cells allografted in BDF1 mouse assessed as increase in survival time at 200 mg/kg administered 24 hrs post challenge relative to control. The format is functional.
Data set [11] relates to P388. Briefly: Antitumor activity against mouse P388 cells allografted in BDF1 mouse assessed as mouse survival at 200 mg/kg administered 24 hrs post challenge relative to control. The format is functional, organism-based. Further details: dose 200 mg/kg.
For data set [12], the system named is P388. The data set is described as follows: Antitumor activity against mouse P388 cells allografted in BDF1 mouse assessed as increase in survival time at 400 mg/kg administered 24 hrs post challenge relative to control. It is filed as functional.
Data set [13] has as its system Mus musculus. The data set is described as follows: Toxicity in mouse P388 cells allografted BDF1 mouse assessed as body weight difference at 400 mg/kg administered 24 hrs post challenge relative to control. It is filed as organism-based. Further details: dose 400 mg/kg. To be noted: in vivo.
The subject of data set [14] is P388. Briefly: Antitumor activity against mouse P388 cells allografted in BDF1 mouse assessed as mouse survival at 400 mg/kg administered 24 hrs post challenge relative to control. It is filed as functional, organism-based. Further details: dose 400 mg/kg.
In data set [15] the test system is Mus musculus. Briefly: Toxicity in mouse P388 cells allografted BDF1 mouse assessed as body weight difference at 200 mg/kg administered 24 hrs post challenge relative to control. It is filed as organism-based. Further details: dose 200 mg/kg. Particulars: in vivo.
The subject of data set [16] is P388. The data set is described as follows: Antitumor activity against mouse P388 cells allografted in BDF1 mouse assessed as mouse survival at 3.13 mg/kg administered 24 hrs post challenge relative to control. It is filed as functional, organism-based. Details: dose 3.13 mg/kg.
Data set [17] deals with Mus musculus. Briefly: Toxicity in mouse P388 cells allografted BDF1 mouse assessed as body weight difference at 12.5 mg/kg administered 24 hrs post challenge relative to control. To be noted: in vivo. Details: dose 12.5 mg/kg. It is filed as organism-based.
Data set [18] deals with P388. The data set is described as follows: Antitumor activity against mouse P388 cells allografted in BDF1 mouse assessed as increase in survival time at 6.25 mg/kg administered 24 hrs post challenge relative to control. The format is functional.
Data set [19] deals with P388. The data set is described as follows: Antitumor activity against mouse P388 cells allografted in BDF1 mouse assessed as increase in survival time at 12.5 mg/kg administered 24 hrs post challenge relative to control. It is filed as functional.
The test system of data set [20] is Mus musculus. The data set is described as follows: Toxicity in mouse P388 cells allografted BDF1 mouse assessed as body weight difference at 3.13 mg/kg administered 24 hrs post challenge relative to control. The format is organism-based. Further details: dose 3.13 mg/kg. To be noted: in vivo.
Data set [21] concerns P388. The data set is described as follows: Antitumor activity against mouse P388 cells allografted in BDF1 mouse assessed as mouse survival at 6.25 mg/kg administered 24 hrs post challenge relative to control. Further details: dose 6.25 mg/kg. It is filed as functional, organism-based.
Data set [22] relates to Mus musculus. Briefly: Toxicity in mouse P388 cells allografted BDF1 mouse assessed as body weight difference at 6.25 mg/kg administered 24 hrs post challenge relative to control. It is filed as organism-based. Details: dose 6.25 mg/kg. Particulars: in vivo.
Data set [23] concerns P388. Briefly: Antitumor activity against mouse P388 cells allografted in BDF1 mouse assessed as increase in survival time at 3.13 mg/kg administered 24 hrs post challenge relative to control. The format is functional.
Data set [24] deals with P388. Briefly: Antitumor activity against mouse P388 cells allografted in BDF1 mouse assessed as mouse survival at 12.5 mg/kg administered 24 hrs post challenge relative to control. The format is functional, organism-based. Further details: dose 12.5 mg/kg.

With `CCCNCCNc1ccc(NCCNCCC)c2c1C(=O)c1ccccc1C2=O`, the values for the T/C in the data set on P388 [1], in the data set on P388 [6] and with P388 [9] were 124%, 118% and 125%, respectively. Besides, the Activity with Mus musculus [2] was -1.7 g; in the data set with Mus musculus [4], -0.8 g; in the data set on Mus musculus [8], -2.6 g. In addition, the outcome with P388 [3], in the data set with P388 [5] and in the data set with P388 [7] was Active.
Take `COc1ccc(CCNc2ccc(NCCc3ccc(OC)c(OC)c3)c3c2C(=O)c2ccccc2C3=O)cc1OC`: the T/C in the data set with P388 [1] came to 86%; with P388 [10], 101%; with P388 [12], 91%. Besides, the result in the data set on P388 [11], in the data set with P388 [5] and with P388 [14] was Active. Moreover, the results for the Activity in the data set on Mus musculus [13], in the data set with Mus musculus [15] and in the data set with Mus musculus [8] were -2.9 g, -3.2 g and -1.7 g, respectively.
In the case of `O=C1c2ccccc2C(=O)c2c(NCCSCCO)ccc(NCCSCCO)c21`, the T/C stood at 94% with P388 [1], 95% in the data set on P388 [6] and 86% in the data set with P388 [9]. The results for the Activity in the data set on Mus musculus [2], in the data set on Mus musculus [4] and in the data set on Mus musculus [8] were -1.4 g, -1.6 g and -2.2 g, respectively. Moreover, the result in the data set on P388 [3], with P388 [5] and in the data set with P388 [7] was Active.
In the case of `CCNCCNc1ccc(NCCNCC)c2c1C(=O)c1ccccc1C2=O`, the outcome in the data set with P388 [16] and in the data set with P388 [21] was Active. Also, the Activity with Mus musculus [17] is -2.8 g; with Mus musculus [4], -4.8 g; with Mus musculus [20], -2.3 g; in the data set with Mus musculus [22], -2.2 g. For the same compound, the T/C in the data set with P388 [18] is recorded as 149%; in the data set with P388 [6], 132%; with P388 [19], 168%; with P388 [23], 142%.
As for `O=C1c2ccccc2C(=O)c2c(NCCN3CCNCC3)ccc(NCCN3CCNCC3)c21`, the Activity with Mus musculus [2] was -2.7 g; with Mus musculus [17], -1.1 g; with Mus musculus [4], -1 g; with Mus musculus [22] it was -0.4 g. The result in the data set on P388 [3], in the data set on P388 [21] and in the data set with P388 [24] was Active. Also, the T/C turned out to be 125% in the data set with P388 [18], 137% in the data set with P388 [6], 117% in the data set on P388 [19] and 134% with P388 [9].
Regarding `O=C1c2ccccc2C(=O)c2c(NCCN3CCCCC3)ccc(NCCN3CCCCC3)c21`, the figures for the T/C in the data set on P388 [1], with P388 [6] and with P388 [9] were 128%, 104% and 110%, respectively. The values for the Activity with Mus musculus [2], with Mus musculus [4] and in the data set with Mus musculus [8] were -2.9 g, -3.6 g and -4.5 g, respectively. In addition, the outcome with P388 [3], in the data set with P388 [5] and with P388 [7] was Active.

As usually defined, the T/C is the ratio of treated to control.
